In patent US20250387369A1 (priority 2022, published 2025) one finds IC50 data, which are given here for three molecules.

Assay type in all cases: cell-based
Assay [1] relates to SARS-COV-2 (a prototype having D614G mutation).
Assay [2] concerns SARS-COV-2 Omicron mutant BA.1 strain.
In assay [3] the test system is SARS-COV-2 (a prototype having D614G mutation). The source holds these as a separate data set.
The test system of assay [4] is SARS-COV-2 Omicron mutant BA.2 strain.

pIC50: −log10 of the molar value. Where two headings read alike, the source gives them in different places.

What is called pIC50 is the IC50 on a negative log10 scale, so that one unit is a factor of ten. `CC(C)(C)OC(=O)NCCCCCCC(C)(C(=O)O)c1c[nH]c2ccccc12` (centres unmarked) [Compound #13] had a pIC50 in assay [1] of 5.96.
Same read-out and setting: then `COc1cc(COc2ccc3[nH]cc(CC(=O)O)c3c2)cc(OC)c1` [Compound #35], with 4.81.
On to `CC(C)C(=O)OC[C@H]1O[C@@H](n2ccc(NO)nc2=O)[C@H](O)[C@@H]1O` [Molnupiravir], for which the pIC50 in assay [2] is 5.40; in assay [3], 5.38; in assay [4], 5.55.
